Results: article PMC4287394 (Clinical cancer research : an official journal of the …, 2014)

Assay: Phase I safety: adverse events, DLT, MTD, RP2D
Format: in vivo, human
[1] = 15mg 21/28, 4 patients, all grades
[2] = 30mg 21/28, 3 patients, all grades
[3] = 45mg 21/28, 4 patients, all grades
[4] = 60mg 21/28, 4 patients, all grades
[5] = 80mg 21/28, 3 patients, all grades
[6] = 100mg 21/28, 5 patients, all grades
[7] = 130mg 21/28, 3 patients, all grades
[8] = 130mg 21/28, 3 patients, grade ≥3
[9] = 180mg 21/28, 3 patients, all grades
[10] = 245mg 21/28, 3 patients, all grades
[11] = 330mg 21/28, 7 patients, all grades

CS(=O)(=O)N1CCN(Cc2cc3nc(-c4cccc5[nH]ncc45)nc(N4CCOCC4)c3s2)CC1 [pictilisib, 2-(1H-indazol-4-yl)-6-(4-methanesulfonyl-piperazin-1-ylmethyl)-4-morpholin-4-yl-t hieno[3,2-d]pyrimidine]
Any treatment-related adverse event, no. of patients [1]: 2 | Decreased appetite, no. of patients with treatment-related AE [1]: 0 | Diarrhea, no. of patients with treatment-related AE [1]: 0 | Dysgeusia, no. of patients with treatment-related AE [1]: 1 | Fatigue, no. of patients with treatment-related AE [1]: 0 | Nausea, no. of patients with treatment-related AE [1]: 1 | Rash (all rash preferred terms), no. of patients with treatment-related AE [1]: 0 | Vomiting, no. of patients with treatment-related AE [1]: 0 | Xeroderma, no. of patients with treatment-related AE [1]: 0 | Any treatment-related adverse event, no. of patients [2]: 1 | Decreased appetite, no. of patients with treatment-related AE [2]: 0 | Diarrhea, no. of patients with treatment-related AE [2]: 0 | Dysgeusia, no. of patients with treatment-related AE [2]: 0 | Fatigue, no. of patients with treatment-related AE [2]: 0 | Nausea, no. of patients with treatment-related AE [2]: 0 | Rash (all rash preferred terms), no. of patients with treatment-related AE [2]: 0 | Vomiting, no. of patients with treatment-related AE [2]: 0 | Xeroderma, no. of patients with treatment-related AE [2]: 0 | Any treatment-related adverse event, no. of patients [3]: 2 | Decreased appetite, no. of patients with treatment-related AE [3]: 0 | Diarrhea, no. of patients with treatment-related AE [3]: 2 | Dysgeusia, no. of patients with treatment-related AE [3]: 1 | Fatigue, no. of patients with treatment-related AE [3]: 0 | Nausea, no. of patients with treatment-related AE [3]: 0 | Rash (all rash preferred terms), no. of patients with treatment-related AE [3]: 0 | Vomiting, no. of patients with treatment-related AE [3]: 0 | Xeroderma, no. of patients with treatment-related AE [3]: 0 | Any treatment-related adverse event, no. of patients [4]: 2 | Decreased appetite, no. of patients with treatment-related AE [4]: 0 | Diarrhea, no. of patients with treatment-related AE [4]: 1 | Dysgeusia, no. of patients with treatment-related AE [4]: 0 | Fatigue, no. of patients with treatment-related AE [4]: 0 | Nausea, no. of patients with treatment-related AE [4]: 2 | Rash (all rash preferred terms), no. of patients with treatment-related AE [4]: 0 | Vomiting, no. of patients with treatment-related AE [4]: 2 | Xeroderma, no. of patients with treatment-related AE [4]: 0 | Any treatment-related adverse event, no. of patients [5]: 3 | Decreased appetite, no. of patients with treatment-related AE [5]: 0 | Diarrhea, no. of patients with treatment-related AE [5]: 1 | Dysgeusia, no. of patients with treatment-related AE [5]: 1 | Fatigue, no. of patients with treatment-related AE [5]: 2 | Nausea, no. of patients with treatment-related AE [5]: 1 | Rash (all rash preferred terms), no. of patients with treatment-related AE [5]: 0 | Vomiting, no. of patients with treatment-related AE [5]: 1 | Xeroderma, no. of patients with treatment-related AE [5]: 0 | Any treatment-related adverse event, no. of patients [6]: 3 | Decreased appetite, no. of patients with treatment-related AE [6]: 0 | Diarrhea, no. of patients with treatment-related AE [6]: 1 | Dysgeusia, no. of patients with treatment-related AE [6]: 0 | Fatigue, no. of patients with treatment-related AE [6]: 1 | Nausea, no. of patients with treatment-related AE [6]: 3 | Rash (all rash preferred terms), no. of patients with treatment-related AE [6]: 0 | Vomiting, no. of patients with treatment-related AE [6]: 0 | Xeroderma, no. of patients with treatment-related AE [6]: 0 | Patients with grade 4 hyperglycemia (130mg): 1 | Any treatment-related adverse event, no. of patients [7]: 1 | Decreased appetite, no. of patients with treatment-related AE [7]: 0 | Diarrhea, no. of patients with treatment-related AE [7]: 0 | Dysgeusia, no. of patients with treatment-related AE [7]: 0 | Fatigue, no. of patients with treatment-related AE [7]: 0 | Nausea, no. of patients with treatment-related AE [7]: 0 | Rash (all rash preferred terms), no. of patients with treatment-related AE [7]: 0 | Vomiting, no. of patients with treatment-related AE [7]: 0 | Xeroderma, no. of patients with treatment-related AE [7]: 0 | Any treatment-related adverse event, no. of patients [8]: 1 | Decreased appetite, no. of patients with treatment-related AE [8]: 0 | Diarrhea, no. of patients with treatment-related AE [8]: 0 | Dysgeusia, no. of patients with treatment-related AE [8]: 0 | Fatigue, no. of patients with treatment-related AE [8]: 0 | Nausea, no. of patients with treatment-related AE [8]: 0 | Rash (all rash preferred terms), no. of patients with treatment-related AE [8]: 0 | Vomiting, no. of patients with treatment-related AE [8]: 0 | Xeroderma, no. of patients with treatment-related AE [8]: 0 | Any treatment-related adverse event, no. of patients [9]: 2 | Decreased appetite, no. of patients with treatment-related AE [9]: 1 | Diarrhea, no. of patients with treatment-related AE [9]: 1 | Dysgeusia, no. of patients with treatment-related AE [9]: 1 | Fatigue, no. of patients with treatment-related AE [9]: 1 | Nausea, no. of patients with treatment-related AE [9]: 0 | Rash (all rash preferred terms), no. of patients with treatment-related AE [9]: 1 | Vomiting, no. of patients with treatment-related AE [9]: 0 | Xeroderma, no. of patients with treatment-related AE [9]: 0 | Any treatment-related adverse event, no. of patients [10]: 3 | Decreased appetite, no. of patients with treatment-related AE [10]: 1 | Diarrhea, no. of patients with treatment-related AE [10]: 2 | Dysgeusia, no. of patients with treatment-related AE [10]: 0 | Fatigue, no. of patients with treatment-related AE [10]: 1 | Nausea, no. of patients with treatment-related AE [10]: 1 | Rash (all rash preferred terms), no. of patients with treatment-related AE [10]: 0 | Vomiting, no. of patients with treatment-related AE [10]: 0 | Xeroderma, no. of patients with treatment-related AE [10]: 1 | Any treatment-related adverse event, no. of patients [11]: 7 | Decreased appetite, no. of patients with treatment-related AE [11]: 2 | Diarrhea, no. of patients with treatment-related AE [11]: 3 | Dysgeusia, no. of patients with treatment-related AE [11]: 1 | Fatigue, no. of patients with treatment-related AE [11]: 4 | Nausea, no. of patients with treatment-related AE [11]: 4 | Rash (all rash preferred terms), no. of patients with treatment-related AE [11]: 4 | Vomiting, no. of patients with treatment-related AE [11]: 3 | Xeroderma, no. of patients with treatment-related AE [11]: 2
